Reference: patent US11672775B2, “Treprostinil prodrugs” (United Therapeutics Corporation, priority 2016, dated 2023)

Assays:
Sprague Dawley rats [1] = assay: Rat intraplantar injection model, von Frey test (Example 9); assay type: in vivo, Sprague Dawley rat; details: for von Frey withdrawal force threshold vs PBS-treated group: both time points post-injection
Method: (§1) Male Sprague Dawley rats (n=112) were allocated into 14 groups of 8/group. The study was run in 2 cycles, on consecutive days, 7 groups per cycle. Each cycle was composed of a Saline group, PBS group, which served as the control, and also treprostinil at a dose of 100 μg/mL or 1 μg/mL.
(§2) Animals were administered 0.1 mL of test material by subcutaneous injection into the paw pad (Intraplantar injection) at time zero. Animals were subsequently evaluated for their response to mechanical (von Frey filaments) and thermal stimuli, 15 and 90 minutes post-injection. The von Frey test was conducted prior to the thermal test, which followed immediately within minutes for each animal. In addition, clinical observation scoring of the animal's reaction to injection was conducted. FIG. 16 schematically illustrates the study design.
Mechanical pain sensitivity was tested using the von Frey test, which measures the withdrawal force threshold of the animals. The lower the force applied represents a greater sensitivity to the stimulus. The von Frey test was performed 15 and 90 minutes post-Test Item injection.

Sprague Dawley rats [2] = assay: Rat intraplantar injection model, thermal pain sensitivity (Example 9); assay type: in vivo, Sprague Dawley rat; details: 100 μg/mL; both time points
Method: as §1, §2
The sensitivity of animals to a thermal pain stimulus was assessed immediately following the von Frey test. The time until withdrawal of the right-injected leg from a heat source was measured, and the lower (faster) the time of response represents a greater sensitivity to the stimulus. The test was performed 15 and 90 minutes post-Test Item injection.

Sprague Dawley rats [3] = assay: Rat intraplantar injection model, clinical observation score (Example 9); assay type: in vivo, Sprague Dawley rat
Method: as §1, §2
A Clinical observation score was assigned by assessing for redness, swelling and paw placement.

Sprague Dawley rats [4] = assay: Rat intraplantar injection model, von Frey test (Example 10); assay type: in vivo, Sprague Dawley rat; details: 1 μg/mL or 100 μg/mL; 15 and 90 minutes post-injection
Method: (§3) Male Sprague Dawley rats (n=56) were allocated into 7 groups of 8 animals per group. […] Each group was compared to the phosphate buffer (50-mM phosphate buffer with 50-mM sodium chloride at pH=7.4) treated group, which served as the control (Group 1).
(§4) Animals were administered 0.1 mL of test material by subcutaneous injection into the paw pad (Intraplantar injection) at time zero. Then, the animals were subsequently evaluated for their response to mechanical (von Frey filaments) and thermal stimuli, 15 and 90 minutes post-injection. The von Frey test was conducted prior to the thermal test, which followed immediately within minutes for each animal. In addition, clinical observation scoring of the animal's reaction to injection was conducted.
Mechanical pain sensitivity was tested using the von Frey test, which measures the withdrawal force threshold of the animals. The lower the force applied represents a greater sensitivity to the stimulus. The von Frey test was performed 15 and 90 minutes post-test item injection.

Sprague Dawley rats [5] = assay: Rat intraplantar injection model, thermal pain sensitivity (Example 10); assay type: in vivo, Sprague Dawley rat
Method: as §3, §4
The sensitivity of animals to a thermal pain stimulus was assessed immediately following the von Frey test. The time until withdrawal of the right-injected leg from a heat source was measured, and the lower (faster) the time of response represents a greater sensitivity to the stimulus. The test was performed 15 and 90 minutes post-test item injection.

Sprague Dawley rats [6] = assay: Rat intraplantar injection model, clinical observation score (Example 10); assay type: in vivo, Sprague Dawley rat; details: 1 μg/mL; both time-points; compared with similar dose of treprostinil
Method: as §3, §4
A clinical observation score was assigned by assessing for redness, swelling and paw placement.

Sprague Dawley rats [7] = assay: Clinical observations following subcutaneous injection (Example 12); assay type: in vivo, Sprague Dawley rat; details: 3, 10, or 30 mg/kg SC; some animals; approximately 4 hours
Method: (§5) Clinical observations were performed at approximately 6 hours prior to dosing, at the completion of dosing and at approximately 4 hours postdosing.

Sprague Dawley rats [8] = assay: Cardiovascular assessment by radiotelemetry following subcutaneous injection (Example 12); assay type: in vivo, Sprague Dawley rat
Method: as §5

in vitro = details: monkey, liver microsomes, pH 7.4
[9] = In vitro metabolic stability in liver microsomes; details: Rat
[10] = In vitro metabolic stability in liver microsomes; details: Monkey; +NADPH
[11] = only the 1 μg/mL dose, both time points

CCCCC[C@H](O)CC[C@@H]1[C@H]2Cc3cccc(OCC(=O)NCC(=O)O)c3C[C@H]2C[C@H]1O [Prodrug VII]
von Frey withdrawal force threshold vs PBS-treated group (Sprague Dawley rats [1]; 1 μg/mL): no statistically significant difference | von Frey withdrawal force threshold vs PBS-treated group (Sprague Dawley rats [1]; 100 μg/mL): statistically significant increased sensitivity | sensitivity to mechanical stimulation vs similar dose of treprostinil (Sprague Dawley rats [1]; [11]): reduced sensitivity | thermal paw withdrawal time vs PBS group (Sprague Dawley rats [2]): trend toward reduction in the time of response | clinical score (Sprague Dawley rats [3]; 100 μg/mL (cycle 1), 15 min): non-zero | clinical score vs PBS group (Sprague Dawley rats [3]; 100 μg/mL (cycle 1), 90 minutes post-injection): non-zero | clinical score vs PBS group (Sprague Dawley rats [3]; 100 μg/mL, both time points): statistically significant increase in the clinical score | clinical score vs similar dose of treprostinil (Sprague Dawley rats [3]; [11]): reduced clinical score | von Frey withdrawal force threshold vs phosphate buffer group (Sprague Dawley rats [4]): reduced withdrawal force threshold | sensitivity to thermal stimulation (Sprague Dawley rats [5]; 1 μg/mL, both time-points, compared with similar dose of treprostinil): reduced sensitivity to thermal stimulation | thermal paw withdrawal time vs phosphate buffer treated group (Sprague Dawley rats [5]; 100 μg/mL, 15 minutes post-administration): statistically significantly faster paw withdrawal time | clinical score (Sprague Dawley rats [6]): lower values of clinical score | clinical observations (Sprague Dawley rats [7]): flushed body and/or extremities, piloerection, hypoactivity, reddened forelimb(s) and/or hindlimb(s), wet yellow material on the urogenital area and ventral trunk, and dried red material around nose | diastolic blood pressure change (Sprague Dawley rats [8]; 0.1 mg/kg SC (for Prodrug VII)): No meaningful change | mean blood pressure change (Sprague Dawley rats [8]; 0.1 mg/kg SC (for Prodrug VII)): No meaningful change | systolic blood pressure change (Sprague Dawley rats [8]; 0.1 mg/kg SC (for Prodrug VII)): No meaningful change | body temperature change (Sprague Dawley rats [8]; 1 mg/kg SC): No significant changes | diastolic blood pressure change (Sprague Dawley rats [8]; 3 mg/kg SC): Marginally lower | diastolic blood pressure lowering persisted through (Sprague Dawley rats [8]; 3 mg/kg SC): 80 min | diastolic blood pressure, time of nadir (Sprague Dawley rats [8]; 3 mg/kg SC): 50 min | hypothermic response persisted through (Sprague Dawley rats [8]; 3 mg/kg SC): 4 h | mean blood pressure change (Sprague Dawley rats [8]; 3 mg/kg SC): Marginally lower | mean blood pressure, time of nadir (Sprague Dawley rats [8]; 3 mg/kg SC): 50 min | systolic blood pressure change (Sprague Dawley rats [8]; 3 mg/kg SC): Marginally lower | systolic blood pressure, time of nadir (Sprague Dawley rats [8]; 3 mg/kg SC): 50 min | diastolic hypotension persisting through (Sprague Dawley rats [8]; 10 mg/kg SC): approximately 4 hours | mean blood pressure hypotension persisting through (Sprague Dawley rats [8]; 10 mg/kg SC): approximately 4 hours | pulse pressure change (Sprague Dawley rats [8]; 10 mg/kg SC): Marginally higher | systolic hypotension persisting through (Sprague Dawley rats [8]; 10 mg/kg SC): approximately 4 hours | systolic hypotension persisting through (Sprague Dawley rats [8]; 30 mg/kg SC): ~6 h | time without recovery of body temperature (Sprague Dawley rats [8]; 30 mg/kg SC): > 24 h | body temperature change (Sprague Dawley rats [8]; 3, 10, and 30 mg/kg SC): Significantly lower | diastolic blood pressure change (Sprague Dawley rats [8]; 10 and 30 mg/kg SC): Significantly lower | diastolic blood pressure, earliest time point of lowering (Sprague Dawley rats [8]; 10 and 30 mg/kg SC): 20 min | diastolic blood pressure, time of nadir (Sprague Dawley rats [8]; 10 and 30 mg/kg SC): 40 min | mean blood pressure change (Sprague Dawley rats [8]; 10 and 30 mg/kg SC): Significantly lower | mean blood pressure, time of nadir (Sprague Dawley rats [8]; 10 and 30 mg/kg SC): 40 min | systolic blood pressure change (Sprague Dawley rats [8]; 10 and 30 mg/kg SC): Significantly lower | systolic blood pressure, earliest time point of lowering (Sprague Dawley rats [8]; 10 and 30 mg/kg SC): 20 min | systolic blood pressure, time of nadir (Sprague Dawley rats [8]; 10 and 30 mg/kg SC): 40 min | dose resulting in significantly lower body temperature (Sprague Dawley rats [8]; single SC injection): ≥ 3 mg/kg | dose resulting in significantly lower systolic, diastolic, mean arterial blood pressure (Sprague Dawley rats [8]; single SC injection): ≥ 3 mg/kg | heart rate change (Sprague Dawley rats [8]; single SC injection, all doses): Higher heart rates

CCOc1ccc2ccc(=O)oc2c1 [Prodrug 7-EC, 7-ethoxycoumarin]
half-life at 500 nM (in vitro): > 6 h | Half-life ([9]; +NADPH): 0.0982 h | Half-life ([9]; −NADPH): >6 h | Half-life [10]: 2.00 min
